{"source": "patent US8349828B2", "about": "“Azatricyclic antibiotic compounds” (Actelion Pharmaceuticals Ltd., priority 2008, dated 2013)", "data": [{"tested_on": "M. catarrhalis A894", "assay": "MIC determination by microdilution in cation-adjusted Mueller-Hinton Broth (CLSI M7-A7)", "assay_type": "cell-based", "settings": "Moraxella catarrhalis, A894, microdilution method", "procedure": "Minimal inhibitory concentrations (MICs, in mg/l) were determined in cation-adjusted Mueller-Hinton Broth by a microdilution method following the description given in “Methods for Dilution Antimicrobial Susceptibility Tests for Bacteria that Grow Aerobically”, Approved standard, 7th ed., Clinical and Laboratory Standards Institute (CLSI) Document M7-A7, Wayne, Pa., USA, 2006. All Example compounds were tested against several Gram-positive and Gram-negative bacteria.", "units": {"MIC": "µg/mL"}, "values": [{"smiles": "O=C1CSc2ccc(N3C[C@@H](CNCC4Cn5c(=O)ccc6nccc(c65)O4)OC3=O)cc2N1", "note": "(mixture of isomers) [Example 1, 2-(RS)-({[(R)-2-oxo-3-(3-oxo-3,4-dihydro-2H-benzo[1,4]thiazin-6-yl)-oxazolidin-5-ylmethyl]-amino}-methyl)-2,3-dihydro-1-oxa-3a,7-diaza-phenalen-4-one]", "MIC": "≤ 0.063"}, {"smiles": "O=C1COc2ccc(N3C[C@@H](CNCC4Cn5c(=O)ccc6nccc(c65)O4)OC3=O)cc2N1", "note": "(mixture of isomers) [Example 2, 2-(RS)-({[(R)-2-oxo-3-(3-oxo-3,4-dihydro-2H-benzo[1,4]oxazin-6-yl)-oxazolidin-5-ylmethyl]-amino}-methyl)-2,3-dihydro-1-oxa-3a,7-diaza-phenalen-4-one]", "MIC": 0.5}, {"smiles": "O=C1CSc2ccc(N3C[C@@H](CNCC4Cc5c(F)ccc6ccc(=O)n(c56)C4)OC3=O)cc2N1", "note": "(mixture of isomers) [Example 3, (6RS)-8-fluoro-6-({[(R)-2-oxo-3-(3-oxo-3,4-dihydro-2H-benzo[1,4]thiazin-6-yl)-oxazolidin-5-ylmethyl]-amino}-methyl)-6,7-dihydro-5H-pyrido[3,2,1-ij]quinolin-3-one]", "MIC": "≤ 0.063"}, {"smiles": "O=C1COc2ccc(N3C[C@@H](CNCC4Cc5c(F)ccc6ccc(=O)n(c56)C4)OC3=O)cc2N1", "note": "(mixture of isomers) [Example 4, (6RS)-8-fluoro-6-({[(R)-2-oxo-3-(3-oxo-3,4-dihydro-2H-benzo[1,4]oxazin-6-yl)-oxazolidin-5-ylmethyl]-amino}-methyl)-6,7-dihydro-5H-pyrido[3,2,1-ij]quinolin-3-one]", "MIC": "≤ 0.063"}, {"smiles": "O=C1O[C@H](CNCC2Cc3c(F)ccc4ccc(=O)n(c34)C2)CN1c1ccc2c(c1)OCCO2", "note": "(mixture of isomers) [Example 5, (6RS)-6-({[(R)-3-(2,3-dihydro-benzo[1,4]dioxin-6-yl)-2-oxo-oxazolidin-5-ylmethyl]-amino}-methyl)-8-fluoro-6,7-dihydro-5H-pyrido[3,2,1-ij]quinolin-3-one]", "MIC": "≤ 0.063"}, {"smiles": "O=C1CSc2ccc(N3C[C@@H](CNCC4Cc5c(F)ccc6ccc(=O)n4c56)OC3=O)cc2N1", "note": "(mixture of isomers) [Example 9, (RS)-9-fluoro-2-({[(R)-2-oxo-3-(3-oxo-3,4-dihydro-2H-benzo[1,4]thiazin-6-yl)-oxazolidin-5-ylmethyl]-amino}-methyl)-1,2-dihydro-pyrrolo[3,2,1-ij]quinolin-4-one]", "MIC": "≤ 0.063"}, {"smiles": "O=C1CSc2ccc(N3CC(CCNC[C@H]4Cc5c(F)ccc6ccc(=O)n4c56)OC3=O)cc2N1", "note": "(mixture of isomers) [Example 10, (R)-9-fluoro-2-({2-[(RS)-2-oxo-3-(3-oxo-3,4-dihydro-2H-benzo[1,4]thiazin-6-yl)-oxazolidin-5-yl]-ethylamino}-methyl)-1,2-dihydropyrrolo[3,2,1-ij]quinolin-4-one]", "MIC": "≤ 0.063"}, {"smiles": "O=C1CSc2ccc(N3C[C@@H](CNCC4Cn5c(=O)ccc6cccc(c65)O4)OC3=O)cc2N1", "note": "(mixture of isomers) [Example 11, (RS)-2-({[(R)-2-oxo-3-(3-oxo-3,4-dihydro-2H-benzo[1,4]thiazin-6-yl)-oxazolidin-5-ylmethyl]-amino}-methyl)-2,3-dihydro-1-oxa-3a-aza-phenalen-4-one]", "MIC": "≤ 0.063"}, {"smiles": "O=C1CSc2ccc(N3C[C@@H](CNCC4Cn5c(=O)ccc6ccc(F)c(c65)O4)OC3=O)cc2N1", "note": "(mixture of isomers) [Example 12, (RS)-9-fluoro-2-({[(R)-2-oxo-3-(3-oxo-3,4-dihydro-2H-benzo[1,4]thiazin-6-yl)-oxazolidin-5-ylmethyl]-amino}-methyl)-2,3-dihydro-1-oxa-3a-aza-phenalen-4-one]", "MIC": "≤ 0.063"}, {"smiles": "O=C1CSc2ccc(N3C[C@@H](CNCC4Cc5c(F)cnc6ccc(=O)n(c56)C4)OC3=O)cc2N1", "note": "(mixture of isomers) [Example 13, (RS)-3-fluoro-5-({[(R)-2-oxo-3-(3-oxo-3,4-dihydro-2H-benzo[1,4]thiazin-6-yl)-oxazolidin-5-ylmethyl]-amino}-methyl)-5,6-dihydro-4H-1,6a-diaza-phenalen-7-one]", "MIC": "≤ 0.063"}, {"smiles": "O=C1COc2ccc(N3C[C@@H](CNCC4Cc5c(F)cnc6ccc(=O)n(c56)C4)OC3=O)cc2N1", "note": "(mixture of isomers) [Example 14, (RS)-3-fluoro-5-({[(R)-2-oxo-3-(3-oxo-3,4-dihydro-2H-benzo[1,4]oxazin-6-yl)-oxazolidin-5-ylmethyl]-amino}-methyl)-5,6-dihydro-4H-1,6a-diaza-phenalen-7-one]", "MIC": "≤ 0.063"}, {"smiles": "O=C1CSc2ccc(N3C[C@@H](CCNCC4Cc5c(F)cnc6ccc(=O)n4c56)OC3=O)cc2N1", "note": "(mixture of isomers) [Example 15, (RS)-3-fluoro-5-({2-[(R)-2-oxo-3-(3-oxo-3,4-dihydro-2H-benzo[1,4]thiazin-6-yl)-oxazolidin-5-yl]-ethylamino}-methyl)-4,5-dihydropyrrolo[3,2,1-de][1,5]naphthyridin-7-one]", "MIC": "≤ 0.063"}, {"smiles": "O=C1COc2ccc(N3C[C@@H](CCNCC4Cc5c(F)ccc6ccc(=O)n4c56)OC3=O)cc2N1", "note": "(mixture of isomers) [Example 21, (RS)-9-fluoro-2-({2-[(R)-2-oxo-3-(3-oxo-3,4-dihydro-2H-benzo[1,4]oxazin-6-yl)-oxazolidin-5-yl]-ethylamino}-methyl)-1,2-dihydropyrrolo[3,2,1-ij]quinolin-4-one]", "MIC": "≤ 0.063"}, {"smiles": "O=C1COc2ccc(N3C[C@H](CCNCC4Cc5c(F)ccc6ccc(=O)n4c56)OC3=O)cc2N1", "note": "(mixture of isomers) [Example 22, (RS)-9-fluoro-2-({2-[(S)-2-oxo-3-(3-oxo-3,4-dihydro-2H-benzo[1,4]oxazin-6-yl)-oxazolidin-5-yl]-ethylamino}-methyl)-1,2-dihydropyrrolo[3,2,1-ij]quinolin-4-one]", "MIC": "≤ 0.063"}, {"smiles": "O=C1COc2ccc(N3C[C@@H](CCNCC4Cc5c(F)ccc6c5N4C(=O)CC6)OC3=O)cc2N1", "note": "(mixture of isomers) [Example 23, (RS)-9-fluoro-2-({2-[(R)-2-oxo-3-(3-oxo-3,4-dihydro-2H-benzo[1,4]oxazin-6-yl)-oxazolidin-5-yl]-ethylamino}-methyl)-1,2,5,6-tetrahydropyrrolo[3,2,1-ij]quinolin-4-one]", "MIC": "≤ 0.063"}, {"smiles": "O=C1CSc2ccc(N3C[C@@H](CCNCC4Cc5ccnc6ccc(=O)n4c56)OC3=O)cc2N1", "note": "(mixture of isomers) [Example 24, (RS)-5-({2-[(R)-2-oxo-3-(3-oxo-3,4-dihydro-2H-benzo[1,4]thiazin-6-yl)-oxazolidin-5-yl]-ethylamino}-methyl)-4,5-dihydro-pyrrolo[3,2,1-de][1,5]naphthyridin-7-one]", "MIC": 2}, {"smiles": "O=C1COc2ccc(N3C[C@H](CCNCC4Cc5ccnc6ccc(=O)n4c56)OC3=O)cc2N1", "note": "(mixture of isomers) [Example 25, (RS)-5-({2-[(S)-2-oxo-3-(3-oxo-3,4-dihydro-2H-benzo[1,4]oxazin-6-yl)-oxazolidin-5-yl]-ethylamino}-methyl)-4,5-dihydro-pyrrolo[3,2,1-de][1,5]naphthyridin-7-one]", "MIC": 4}, {"smiles": "O=C1CSc2ccc(N3C[C@@H](CCNCC4Cc5cccc6ccc(=O)n4c56)OC3=O)cc2N1", "note": "(mixture of isomers) [Example 26, (RS)-2-({2-[(R)-2-oxo-3-(3-oxo-3,4-dihydro-2H-benzo[1,4]thiazin-6-yl)-oxazolidin-5-yl]-ethylamino}-methyl)-1,2-dihydro-pyrrolo[3,2,1-ij]quinolin-4-one]", "MIC": "≤ 0.063"}, {"smiles": "O=C1COc2ccc(N3C[C@@H](CCNCC4Cc5cccc6ccc(=O)n4c56)OC3=O)cc2N1", "note": "(mixture of isomers) [Example 27, (RS)-2-({2-[(R)-2-oxo-3-(3-oxo-3,4-dihydro-2H-benzo[1,4]oxazin-6-yl)-oxazolidin-5-yl]-ethylamino}-methyl)-1,2-dihydro-pyrrolo[3,2,1-ij]quinolin-4-one]", "MIC": "≤ 0.063"}, {"smiles": "O=C1CSc2ccc(N3C[C@@H](CNCC4Cc5cccc6ccc(=O)n4c56)OC3=O)cc2N1", "note": "(mixture of isomers) [Example 28, (RS)-2-({[(R)-2-oxo-3-(3-oxo-3,4-dihydro-2H-benzo[1,4]thiazin-6-yl)-oxazolidin-5-ylmethyl]-amino}-methyl)-1,2-dihydro-pyrrolo[3,2,1-ij]quinolin-4-one]", "MIC": "≤ 0.063"}, {"smiles": "O=C1COc2ccc(N3C[C@H](CCNCC4Cc5cccc6ncc(=O)n4c56)OC3=O)nc2N1", "note": "(mixture of isomers) [Example 31, (RS)-5-({2-[(S)-2-oxo-3-(3-oxo-3,4-dihydro-2H-pyrido[3,2-b][1,4]oxazin-6-yl)-oxazolidin-5-yl]-ethylamino}-methyl)-5,6-dihydropyrrolo[1,2,3-de]quinoxalin-3-one]", "MIC": "≤ 0.063"}, {"smiles": "O=C1CSc2ccc(N3C[C@@H](CCN[C@@H]4Cc5c(F)ccc6ccc(=O)n(c56)C4)OC3=O)cc2N1", "note": "(racemic) [Example 7, (6RS)-8-fluoro-6-{2-[(RS)-2-oxo-3-(3-oxo-3,4-dihydro-2H-benzo[1,4]thiazin-6-yl)-oxazolidin-5-yl]-ethylamino}-6,7-dihydro-5H-pyrido[3,2,1-ij]quinolin-3-one]", "MIC": "≤ 0.063"}, {"smiles": "O=C1CSc2ccc(N3C[C@@H](CNC[C@H]4Cc5c(F)ccc6ccc(=O)n4c56)OC3=O)cc2N1", "note": "[Example 6, (R)-9-fluoro-2-({[(R)-2-oxo-3-(3-oxo-3,4-dihydro-2H-benzo[1,4]thiazin-6-yl)-oxazolidin-5-ylmethyl]-amino}-methyl)-1,2-dihydro-pyrrolo[3,2,1-ij]quinolin-4-one]", "MIC": "≤ 0.063"}, {"smiles": "O=C1COc2ccc(N3C[C@@H](CNC[C@H]4Cc5c(F)ccc6ccc(=O)n4c56)OC3=O)cc2N1", "note": "[Example 8, (R)-9-fluoro-2-({[(R)-2-oxo-3-(3-oxo-3,4-dihydro-2H-benzo[1,4]oxazin-6-yl)-oxazolidin-5-ylmethyl]-amino}-methyl)-1,2-dihydro-pyrrolo[3,2,1-ij]quinolin-4-one]", "MIC": 0.125}]}]}
